In patent US20260256751A1, “COMBINATION OF BETA-2-ADRENERGIC RECEPTOR AGONISTS AND GLP-1 RECEPTOR AGONISTS FOR USE IN TREATING HYPERGLYCAEMIA” (ATROGI AB, priority 2023, published 2026):

Tests used:
[1] = test system: differentiated L6-myotubes; assay: Glucose uptake screen (Biological example 1 of WO 2019/053427); format: cell-based; settings: compound at 10 μM, activity relative to isoproterenol at 10 μM, read-out: Biological example 1 of WO 2019/053427 (GU)
Procedure, shortened: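 Uptake was read out as ^3H-2-deoxyglucose (50 nM, 10 min) radioactivity in NaOH lysates. Beforehand, overnight-starved, differentiated L6 myotubes received compound at 1×10^−5 M with ICI-118551 present for 1 h 40 min, followed by fresh agonist for a further 20 min in glucose-free medium.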

[2] = test system: differentiated L6-myotubes; assay: cAMP production relative to isoprenaline (Biological example 2 of WO 2019/053427); format: cell-based; settings: 0.25 h, compound at 10 μM, activity relative to isoproterenol at 10 μM
Procedure, shortened: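 Values are cAMP levels relative to isoprenaline at equal concentration (final 1×10^−5 M for both). Stimulation lasted 15 min in differentiated L6 myotubes, using HBSS buffer (pH 7.4) containing 1 mM IBMX, 5 mM HEPES and 1% BSA.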

Structure (SMILES)	Emax at 10 µM [1]	Emax at 10 µM [2]
CO[C@H]1CC[C@H](C[C@@H]2CC[C@H]([C@@H](O)c3cccc(F)c3)N2)CC1 [Compound 325, (S)-[(2R,5S)-5-{[(1r,4S)-4-methoxycyclohexyl]methyl}-2-pyrrolidinyl](m-fluorophenyl)methanol]	> 75%	< 25%
CCC[C@@H]1CCC[C@H]([C@H](O)c2ccc(F)cc2)N1 [Compound 94, (R)-[(2R,6R)-6-propyl-2-piperidyl](p-fluorophenyl)methanol]	50 to 75%	< 25%
CC12CC(C1)[C@@H]([C@H](O)c1cccc(F)c1)N2 [Compound 188, (R)-{(S)-1-methyl-2-azabicyclo[2.1.1]hex-3-yl}(m-fluorophenyl)methanol]	< 25%	< 25%
CC(=O)N[C@H]1CC[C@@H](CC(C)(C)NC[C@H](O)c2cccc(F)c2)CC1 [Compound 452, N-[(1S,4s)-4-{2-[(R)-2-(m-fluorophenyl)-2-hydroxyethylamino]-2-methylpropyl}cyclohexyl]acetamide]	> 75%	< 25%
O[C@@H](c1cccc(F)c1)C12CCC(CCc3cccnc3)(CC1)N2 [Compound 445, (S)-(m-fluorophenyl){4-[2-(3-pyridyl)ethyl]-7-azabicyclo[2.2.1]hept-1-yl}methanol]	> 75%	< 25%
C[C@H]1CC[C@@H]([C@@H](O)c2cccc(O)c2)N1 (racemic) [Compound 41, Racemic mixture of m-{(R)-[(2R,5R)-5-methyl-2-pyrrolidinyl]hydroxymeth-yl}phenol and m-{(S)-[(2S,5S)-5-methyl-2-pyrrolidinyl]hydroxymeth-yl}phenol]	> 75%	< 25%
CCC[C@@H](C)NC[C@H](O)c1ccc(O)cc1 [Compound 27, (R)-2-[(R)-1-methylbutylamino]-1-(p-hydroxyphenyl)-1-ethanol]	> 75%	25 to 50%
CC(C)(C[C@H]1CC[C@H](NS(C)(=O)=O)CC1)NC[C@H](O)c1cccc(C(F)(F)F)n1 [Compound 461, (S)-2-{1,1-dimethyl-2-[(1r,4S)-4-(mesylamino)cyclohexyl]ethylamino}-1-[6-(trifluoromethyl)-2-pyridyl]-1-ethanol]	25 to 50%	< 25%
CC1(C)CC[C@H]([C@H](O)c2ccc(F)cc2)N1 [Compound 173, (R)-[(R)-5,5-dimethyl-2-pyrrolidinyl](p-fluorophenyl)methanol]	50 to 75%	< 25%
CC1(C)CC[C@H]([C@@H](O)c2ccccc2F)N1 [Compound 174, (S)-[(R)-5,5-dimethyl-2-pyrrolidinyl](o-fluorophenyl)methanol]	< 25%	< 25%
O[C@@H](CNCCC[C@H]1CC[C@H](OCc2ccccc2)CC1)c1cccc(F)c1 [Compound 278, (R)-1-(m-fluoropheny)-2-{3-[(1r,4S)-4-(benzyloxy)cyclohexyl]pro-pylamino}-1-ethanol]	25 to 50%	< 25%
O[C@@H](CNCC[C@H]1CC[C@@H](OCc2ccccc2)CC1)c1cccc(F)c1 [Compound 287, (R)-1-(m-fluorophenyl)-2-{2-[(1s,4S)-4-(benzyloxy)cyclohexyl]eth-ylamino}-1-ethanol]	50 to 75%	< 25%
CC12CC(C1)[C@H]([C@@H](O)c1cncc(F)c1)N2 [Compound 222, (S)-{(R)-1-methyl-2-azabicyclo[2.1.1]hex-3-yl}(5-fluoro-3-pyridyl)methanol]	< 25%	< 25%
CC(C)(C[C@H]1CC[C@@H](C(=O)O)CC1)NC[C@H](O)c1cccc(F)c1 [Compound 331, (1S,4s)-4-{2-[(R)-2-(m-fluorophenyl)-2-hydroxyethylamino]-2-methylpropyl}cyclohexanecarboxylic acid]	25 to 50%	< 25%
CCC[C@H]1CCC[C@H]([C@@H](O)c2cccc(F)c2)N1 [Compound 70, (S)-[(2R,6S)-6-propyl-2-piperidyl](m-fluorophenyl)methanol]	50 to 75%	< 25%
CCCCNCC(O)c1cc(F)cc(F)c1 (stereo not drawn) [Compound 55, 2-(butylamino)-1-(3,5-difluorophenyl)-1-ethanol]	50 to 75%	< 25%
O[C@@H](c1cncc(F)c1)C12CCC(CCCc3ccccc3)(CC1)N2 [Compound 531, (S)-(5-fluoro-3-pyridyl){4-(3-phenylpropyl)-7-azabicyclo[2.2.1]hept-1-yl}methanol]	50 to 75%	< 25%
CC(C)(NC[C@H](O)c1cccc(F)c1)[C@H]1CC[C@@H](OCc2ccccc2)CC1 [Compound 280, (R)-1-(m-fluorophenyl)-2-{1-methyl-1-[(1s,4S)-4-(benzyloxy)cyclohexyl]eth-ylamino}-1-ethanol]	> 75%	< 25%
CO[C@H]1CC[C@H](CCNC[C@H](O)c2cncc(F)c2)CC1 [Compound 225, (R)-1-(5-fluoro-3-pyridyl)-2-{2-[(1r,4R)-4-methoxycyclohexyl]ethyl-amino}-1-ethanol]	50 to 75%	< 25%
CCCCNCC(O)c1cccnc1 (stereo not drawn) [Compound 49, 2-(butylamino)-1-(3-pyridyl)-1-ethanol]	50 to 75%	< 25%
COc1ccc(C[C@H]2CC[C@H]([C@@H](O)c3cccc(F)c3)N2)cc1 [Compound 375, (S)-{(2R,5R)-5-[(p-methoxyphenyl)methyl]-2-pyrrolidinyl}(m-fluorophenyl)methanol]	> 75%	< 25%
CCCC(C)(C)NC[C@H](O)c1cccc(F)c1 [Compound 61, (R)-2-(1,1-dimethylbutylamino)-1-(m-fluorophenyl)-1-ethanol]	> 75%	< 25%
Oc1ccc(C(O)CNC2CCCC2)cc1 (stereo not drawn) [Compound 10, p-[2-(cyclopentylamino)-1-hydroxyethyl]phenol]	50 to 75%	< 25%
O[C@H](c1cccc(F)c1)[C@H]1CCC2(CC2)N1 [Compound 170, (R)-{(R)-4-aza-5-spiro[2.4]heptyl}(m-fluorophenyl)methanol]	50 to 75%	< 25%
COC(=O)[C@H]1CC[C@H](C(C)(C)NC[C@H](O)c2cccc(F)c2)CC1 [Compound 367, (1R,4r)-8-[(R)-2-(m-fluorophenyl)-2-hydroxyethylamino]-7-methoxy-p-menthan-7-one]	> 75%	25 to 50%
CO[C@H]1CC[C@H](C[C@]2(C)CC[C@H]([C@H](O)c3cccc(F)c3)N2)CC1 [Compound 364, (R)-[(2R,5S)-5-methyl-5-{[(1r,4S)-4-methoxycyclohexyl]methyl}-2-pyrrolidinyl](m-fluorophenyl)methanol]	> 75%	50 to 75%
CC12CCC([C@H](O)c3cncc(F)c3)(CC1)N2 [Compound 185, (R)-(5-fluoro-3-pyridyl)(4-methyl-7-azabicyclo[2.2.1]hept-1-yl)methanol]	> 75%	< 25%
